Read-outs that look alike come from different tables or passages of the source. Bounds are passed on as bounds.

For orientation: GI50 means the concentration that inhibits growth by half.

The assay has as its system KARPAS-422 cells. Description: Cell growth inhibition test (CTG method). The assay is classed as cell-based. To be noted: KARPAS-422 (EZH2^Y641N mutant), culturing for 7 days, read-out: Cell growth inhibitory activity (GI50, nM) KARPAS-422 (EZH2^Y641N mutant). As for the experimental part:
The cultured cell strain was prepared at 1.8×10^4 cells/400 μL and placed in a 48-well plate.

[1] abbreviates: Homo sapiens, KARPAS-422, 168 h.

`Cc1cc(C)c(CN2CCc3c(Cl)c4c(c(C)c3C2=O)OC(C)(C23CCC(N(C)C)(CC2)CC3)O4)c(=O)[nH]1` (single isomer, unassigned) [Compound 3, 9-chloro-6-((4,6-dimethyl-2-oxo-1,2-dihydropyridin-3-yl)methyl)-2-(4-(dimethylamino)bicyclo[2.2.2]octan-1-yl)-2,4-dimethyl-7,8-dihydro-[1,3]dioxolo[4,5-g]isoquinolin-5(6H)-one]: the concentration for 50% growth inhibition (GI50) is 100 to 1000 nM.

For the compound `COc1cc(C)[nH]c(=O)c1CN1CCc2c(Cl)c3c(c(C)c2C1=O)OC(C)(C12CCC(N(C)C)(CC1)CC2)O3` (single isomer, unassigned) [Compound 6, 9-chloro-2-(4-(dimethylamino)bicyclo[2.2.2]octan-1-yl)-6-((4-methoxy-6-methyl-2-oxo-1,2-dihydropyridin-3-yl)methyl)-2,4-dimethyl-7,8-dihydro[1,3]dioxolo[4,5-g]isoquinolin-5(6H)-one], the GI50 is over 1000 nM.

Regarding `CSc1cc(C)[nH]c(=O)c1CN1CCc2c(Cl)c3c(c(C)c2C1=O)OC(C)(C12CCC(N(C)C)(CC1)CC2)O3` (single isomer, unassigned) [Compound 9, 9-chloro-2-(4-(dimethylamino)bicyclo[2.2.2]octan-1-yl)-2,4-dimethyl-6-((6-methyl-4-(methylthio)-2-oxo-1,2-dihydropyridin-3-yl)methyl)-7,8-dihydro[1,3]dioxolo[4,5-g]isoquinolin-5(6H)-one], the GI50 fell in the range of 100 to 1000 nM.

For the compound `Cc1cc(C)c(CN2CCc3c(Br)c4c(c(C)c3C2=O)OC(C)(C23CCC(N(C)C)(CC2)CC3)O4)c(=O)[nH]1` (single isomer, unassigned) [Compound 12, 9-bromo-6-((4,6-dimethyl-2-oxo-1,2-dihydropyridin-3-yl)methyl)-2-(4-(dimethylamino)bicyclo[2.2.2]octan-1-yl)-2,4-dimethyl-7,8-dihydro-[1,3]dioxolo[4,5-g]isoquinolin-5(6H)-one], the GI50 was over 1000 nM.

Take `Cc1cc(C)c(CN2CCc3c(Cl)c4c(c(C)c3C2=O)OC(C)(C23CCC(N(C)C)(CC2)CC3)O4)c(=O)[nH]1` (stereo not shown) [Compound 1, 9-chloro-6-((4,6-dimethyl-2-oxo-1,2-dihydropyridin-3-yl)methyl)-2-(4-(dimethylamino)bicyclo[2.2.2]octan-1-yl)-2,4-dimethyl-7,8-dihydro-[1,3]dioxolo[4,5-g]isoquinolin-5(6H)-one]: under setting [1], the GI50 lay within 10 to 100 nM.

With `Cc1cc(C)c(CN2CCc3c(Br)c4c(c(C)c3C2=O)OC(C)(C23CCC(N(C)C)(CC2)CC3)O4)c(=O)[nH]1` (stereo not shown) [Compound 10, 9-bromo-6-((4,6-dimethyl-2-oxo-1,2-dihydropyridin-3-yl)methyl)-2-(4-(dimethylamino)bicyclo[2.2.2]octan-1-yl)-2,4-dimethyl-7,8-dihydro-[1,3]dioxolo[4,5-g]isoquinolin-5(6H)-one], under setting [1], the GI50 was 4.1 to 55 nM.

Turning to `Cc1cc(C)c(CN2CCc3c(c(C)c4c(c3C3CC3)OC(C)(C35CCC(N(C)C)(CC3)CC5)O4)C2=O)c(=O)[nH]1` (stereo not shown) [Compound 13, 9-cyclopropyl-6-((4,6-dimethyl-2-oxo-1,2-dihydropyridin-3-yl)methyl)-2-(4-(dimethylamino)bicyclo[2.2.2]octan-1-yl)-2,4-dimethyl-7,8-dihydro-[1,3]dioxolo[4,5-g]isoquinolin-5(6H)-one], the GI50 under setting [1] came to 30 nM.

As for `Cc1cc(C)c(CN2CCc3cc4c(c(C)c3C2=O)OC(C)(C23CCC(N(C)C)(CC2)CC3)O4)c(=O)[nH]1` (stereo not shown) [Compound 14, 6-((4,6-dimethyl-2-oxo-1,2-dihydropyridin-3-yl)methyl)-2-(4-(dimethylamino)bicyclo[2.2.2]octan-1-yl)-2,4-dimethyl-7,8-dihydro-[1,3]dioxolo[4,5-g]isoquinolin-5(6H)-one], under setting [1], the GI50 turned out to be 45 nM.

Regarding `Cc1cc(C)c(CN2CCc3c(c(C)c4c(c3C3CCCC3)OC(C)(C35CCC(N(C)C)(CC3)CC5)O4)C2=O)c(=O)[nH]1` (stereo not shown) [Compound 16, 9-cyclopentyl-6-((4,6-dimethyl-2-oxo-1,2-dihydropyridin-3-yl)methyl)-2-(4-(dimethylamino)bicyclo[2.2.2]octan-1-yl)-2,4-dimethyl-7,8-dihydro-[1,3]dioxolo[4,5-g]isoquinolin-5(6H)-one], under setting [1], the GI50 was 36 nM.

Consider `CCc1c2c(c(C)c3c1OC(C)(C14CCC(N(C)C)(CC1)CC4)O3)C(=O)N(Cc1c(C)cc(C)[nH]c1=O)CC2` (stereo not shown) [Compound 18, 6-((4,6-dimethyl-2-oxo-1,2-dihydropyridin-3-yl)methyl)-2-(4-(dimethylamino)bicyclo[2.2.2]octan-1-yl)-9-ethyl-2,4-dimethyl-7,8-dihydro-[1,3]dioxolo[4,5-g]isoquinolin-5(6H)-one], for which, under setting [1], the GI50 turned out to be 27 nM.

Turning to `Cc1cc(C)c(CN2CCc3c(c(C)c4c(c3C(C)C)OC(C)(C35CCC(N(C)C)(CC3)CC5)O4)C2=O)c(=O)[nH]1` (stereo not shown) [Compound 20, 6-((4,6-dimethyl-2-oxo-1,2-dihydropyridin-3-yl)methyl)-2-(4-(dimethylamino)bicyclo[2.2.2]octan-1-yl)-9-isopropyl-2,4-dimethyl-7,8-dihydro-[1,3]dioxolo[4,5-g]isoquinolin-5(6H)-one], under setting [1], the GI50 was 47 nM.

On to `C#Cc1c2c(c(C)c3c1OC(C)(C14CCC(N(C)C)(CC1)CC4)O3)C(=O)N(Cc1c(C)cc(C)[nH]c1=O)CC2` (stereo not shown) [Compound 21, 6-((4,6-dimethyl-2-oxo-1,2-dihydropyridin-3-yl)methyl)-2-(4-(dimethylamino)bicyclo[2.2.2]octan-1-yl)-9-ethynyl-2,4-dimethyl-7,8-dihydro-[1,3]dioxolo[4,5-g]isoquinolin-5(6H)-one], for which the GI50 under setting [1] came to 18 nM.

With `Cc1cc(C)c(CN2CCc3c(C)c4c(c(C)c3C2=O)OC(C)(C23CCC(N(C)C)(CC2)CC3)O4)c(=O)[nH]1` (stereo not shown) [Compound 22, 6-((4,6-dimethyl-2-oxo-1,2-dihydropyridin-3-yl)methyl)-2-(4-(dimethylamino)bicyclo[2.2.2]octan-1-yl)-2,4,9-trimethyl-7,8-dihydro-[1,3]dioxolo[4,5-g]isoquinolin-5(6H)-one], the GI50 was 12 to 19 nM.

For `Cc1cc(C)c(CN2CCc3c(C)c4c(c(C)c3C2=O)OC(C)(C23CCC(N(C)C)(CC2)CC3)O4)c(=O)[nH]1` (stereo not shown) [Compound 24, 6-((4,6-dimethyl-2-oxo-1,2-dihydropyridin-3-yl)methyl)-2-(4-(dimethylamino)bicyclo[2.2.2]octan-1-yl)-2,4,9-trimethyl-7,8-dihydro-[1,3]dioxolo[4,5-g]isoquinolin-5(6H)-one], the GI50 fell in the range of 100 to 1000 nM.

With `COc1cc(C)[nH]c(=O)c1CN1CCc2c(C)c3c(c(C)c2C1=O)OC(C)(C12CCC(N(C)C)(CC1)CC2)O3` (stereo not shown) [Compound 25, 2-(4-(dimethylamino)bicyclo[2.2.2]octan-1-yl)-6-((4-methoxy-6-methyl-2-oxo-1,2-dihydropyridin-3-yl)methyl)-2,4,9-trimethyl-7,8-dihydro[1,3]dioxolo[4,5-g]isoquinolin-5(6H)-one], the GI50 under setting [1] came out at 14 nM.

For the compound `CCCc1cc(C)[nH]c(=O)c1CN1CCc2c(C)c3c(c(C)c2C1=O)OC(C)(C12CCC(N(C)C)(CC1)CC2)O3` (stereo not shown) [Compound 26, 2-(4-(dimethylamino)bicyclo[2.2.2]octan-1-yl)-2,4,9-trimethyl-6-((6-methyl-2-oxo-4-propyl-1,2-dihydropyridin-3-yl)methyl)-7,8-dihydro[1,3]dioxolo[4,5-g]isoquinolin-5(6H)-one], the GI50 under setting [1] is 46 nM.

`Cc1cc(C)c(CN2CCc3c(C)c4c(c(Cl)c3C2=O)OC(C)(C23CCC(N(C)C)(CC2)CC3)O4)c(=O)[nH]1` (stereo not shown) [Compound 27, 4-chloro-6-((4,6-dimethyl-2-oxo-1,2-dihydropyridin-3-yl)methyl)-2-(4-(dimethylamino)bicyclo[2.2.2]octan-1-yl)-2,9-dimethyl-7,8-dihydro-[1,3]dioxolo[4,5-g]isoquinolin-5(6H)-one]: the GI50 under setting [1] worked out at 9.8 nM.

In the case of `Cc1cc(C)c(CN2CCc3c(Cl)c4c(c(Cl)c3C2=O)OC(C)(C23CCC(N(C)C)(CC2)CC3)O4)c(=O)[nH]1` (stereo not shown) [Compound 28, 4,9-dichloro-6-((4,6-dimethyl-2-oxo-1,2-dihydropyridin-3-yl)methyl)-2-(4-(dimethylamino)bicyclo[2.2.2]octan-1-yl)-2-methyl-7,8-dihydro-[1,3]dioxolo[4,5-g]isoquinolin-5(6H)-one], under setting [1], the GI50 was determined as 13 nM.

Turning to `Cc1cc(C)c(CN2CCc3c(Cl)c4c(c(C)c3C2=O)OC(C23CCC(N(C)C)(CC2)CC3)O4)c(=O)[nH]1` (stereo not shown) [Compound 29, 9-chloro-6-((4,6-dimethyl-2-oxo-1,2-dihydropyridin-3-yl)methyl)-2-(4-(dimethylamino)bicyclo[2.2.2]octan-1-yl)-4-methyl-7,8-dihydro-[1,3]dioxolo[4,5-g]isoquinolin-5(6H)-one], under setting [1], the GI50 turned out to be 36 nM.

With `Cc1cc(C)c(CN2CCc3c(c(C)c4c(c3-c3ccco3)O[C@@](C)([C@H]3CC[C@H](N(C)C)CC3)O4)C2=O)c(=O)[nH]1` [Compound 31, (S)-6-((4,6-dimethyl-2-oxo-1,2-dihydropyridin-3-yl)methyl)-2-(trans-4-(dimethylamino)cyclohexyl)-9-(furan-2-yl)-2,4-dimethyl-7,8-dihydro-[1,3]dioxolo[4,5-g]isoquinolin-5(6H)-one], under setting [1], the GI50 was over 1000 nM.

For `Cc1cc(C)c(CN2CCc3c(c(C)c4c(c3-c3cccs3)O[C@@](C)([C@H]3CC[C@H](N(C)C)CC3)O4)C2=O)c(=O)[nH]1` [Compound 33, (S)-6-((4,6-dimethyl-2-oxo-1,2-dihydropyridin-3-yl)methyl)-2-(trans-4-(dimethylamino)cyclohexyl)-2,4-dimethyl-9-(thiophen-2-yl)-7,8-dihydro-[1,3]dioxolo[4,5-g]isoquinolin-5(6H)-one], the GI50 under setting [1] is over 1000 nM.

Turning to `Cc1cc(C)c(CN2CCc3c(c(C)c4c(c3-c3ccncc3)O[C@@](C)([C@H]3CC[C@H](N(C)C)CC3)O4)C2=O)c(=O)[nH]1` [Compound 35, (S)-6-((4,6-dimethyl-2-oxo-1,2-dihydropyridin-3-yl)methyl)-2-(trans-4-(dimethylamino)cyclohexyl)-2,4-dimethyl-9-(pyridin-4-yl)-7,8-dihydro-[1,3]dioxolo[4,5-g]isoquinolin-5(6H)-one], the GI50 under setting [1] is over 1000 nM.

The values above are taken from patent US11535629B2, “Dioxoloisoquinolinone derivatives and use thereof” (HANMI PHARMACEUTICAL CO., LTD., priority 2020, dated 2022).
